# Marks after values point to notes of the source that are not given here. Peptide text beside a SMILES is read from it.
# Key:
# [1] = tested on: rats with experimental parodontitis; assay: Microcirculation in rats with experimental parodontitis (gingiva biomicroscopy, laser dopplerography); format: in vivo; set-up: capillaries density per area unit: unit not given here; settings: for diameter of the capillaries: in µm
# Experimental: The experiments were conducted on 45 white mongrel male and female rats with body weight of 180-200 g. The model of light parodontitis was induced by the method of differentiated feeding of rats with standard granulated PK-120 forage for 1.5 months.
# The animals were divided into 3 groups 15 rats in each: the animals of the first group, suffering from parodontitis didn't receive any treatment, rats in the second group suffering from experimental parodontitis were injected with 0.1 ml of sterile 0.9% NaCl solution into the mucous of the gingiva transitional fold (control); the animals of the third group with experimental parodontitis were subjected to a daily single injection of H-Lys-Glu-Asp-OH peptide in the dose of 2 μg in the 0.1 ml of sterile 0,9% NaCl solution into the mucous gingiva transitional fold with simultaneous rubbing in of peptide solution for 10 days.
# During all experiments there was conducted a biomicroscopy of mucous membrane of the rats gingiva under nembutal anaesthesia with usage of contact object lenses and estimated the blood flow rate in capillaries by means of laser capillary blood flow analyzer LAKK-01. The studies were conducted in 3 areas of the gingiva, in the free gingiva, attached gingiva and transitional fold in case of 100 magnification. Clinical signs of the parodontitis were evaluated visually.
# [2] = tested on: patients with purpura senilis; assay: Hemostasis indices and Hess test in patients with purpura senilis; format: in vivo
# Experimental: The study was conducted on 23 patients aged 70-82, suffering from purpura senilis, who complained of frequent spontaneous hemorrhages on the face, neck, forearms and hands. The patients reported progressive development of the disease.
# The patients were randomly divided into two groups. The main group consisted of 12 patients, who were injected with pharmaceutical composition, containing peptide H-Lys-Glu-Asp-OH as its active base, in the dose of 100 μg in 1.0 ml of physiological solution daily intramuscularly for 10 days. Control group consisted of 11 patients, injected with sterile physiological solution following the same scheme.
# Complains of the patients were analyzed in dynamics, also there were conducted general blood and urine tests, blood biochemical test. In order to study hemostasis there were made blood coagulogramm and Hess test with a tourniquet.
# [3] = tested on: male guinea pigs; assay: Chronic toxicity, 6 months daily intramuscular administration; peripheric blood morphology and biochemical indices; settings: long-term administration
# Experimental: (§1) The studies of chronic toxicity were conducted for 6 months, basing on the term of recommended clinical administration of the substance, on 96 male guinea pigs with body weight of 300-340 g. Experimental animals received the peptide daily, once a day, intramuscularly, for 6 months in the doses of 1 μg/kg, 0.1 mg/kg, 1 mg/kg in 0.5 ml of sterile 0.9% NaCl solution. Control animals received sterile 0.9% NaCl solution in the same volume and by the same schedule. Traditional methods were used for the evaluation of the following indices of the animals' peripheric blood: the quantity of erythrocytes, hemoglobin, reticulocytes, thrombocytes, leukocytes, leukocyte formula, erythrocyte sedimentation rate (ESR), erythrocyte resistance. Alongside with that, the content of total protein in the serum was identified using Lowry's method, as well as potassium and sodium content using the method of plasma spectrophotometry. Upon the completion of the experiment pathomorphologic studies of animal brain and spinal cord, spinal cord ganglia, thyroid gland, parathyroid glands, adrenal glands, testis, pituitary body, heart, lungs, aorta, liver, kidneys, urinary bladder, pancreas, stomach, small intestine, large intestine, thymus, spleen, lymph nodes and bone marrow were performed.
# [4] = tested on: male guinea pigs; settings: in vivo
# Experimental: as §1
# [5] = tested on: skin capillaries of patients with hypovitaminosis; assay: Skin capillary resistance in patients with hypovitaminosis (Rumpel-Leede-Konchalovskiy cuff test); format: in vivo
# Experimental: The study was conducted on 25 patients aged 19-35, reporting signs of hypovitaminosis in spring. The patients were randomly divided into 2 groups.
# The patients of the main group were divided into three sub-groups depending on the hypovitaminosis severity. Patients suffering from the severe hypovitaminosis were subjected to a daily single intramuscular injection of pharmaceutical composition containing H-Lys-Glu-Asp-OH peptide as its active base, in the dose of 5.0 mg in 1.0 ml of sterile 0.9% NaCl solution for 10 days; patients with moderately sever hypovitaminosis—in the dose of 100.0 μg, and patients with mild signs of hypovitaminosis—in the dose of 1.0 μg.
# Control group consisted of 18 patients, subjected to an injection of physiological solution following the same scheme. Both groups received only balanced vitamin containing diet.
# The estimation of the H-Lys-Glu-Asp-OH peptide effect on resistance of skin capillaries was conducted by means of Rumpel-Leede-Konchalovskiy capillary fragility test. A blood-pressure cuff was applied to the upper part of the arm of the patients. Then there was maintained pressure up to 200 mmHg for 3 minutes. Skin capillary resistance was evaluated on the area of the dosed load on skin capillaries (under the cuff). Hemorrhages were counted with a help of the magnifying glass.
# Skin capillary resistance was graded according to the five-point scale: […]
# [6] = tested on: vascular wall explants; assay: Development of vascular wall explants (area index); format: cell-based, Wistar rats
# Experimental: The experiments were conducted on 32 fragments of vascular wall from the peripheral artery of Wistar rats with body weight of 150-200 g. Nutritional medium for explants cultivation consisted of 35% Eagle's solution, 25% calf fetal serum, 35% Hanx solution, 5% chicken embryonic extract, with the addition of glucose (0.6%), insulin (0,5 units/ml), penicillin (100 units/ml), glutamine (2 mM). […] Peptide H-Lys-Glu-Asp-OH was added into the medium, in the concentration of 1, 10, 100 and 200 ng/ml.
# Area index (AI), i.e. the ratio of total explant area together with the growth zone to the initial area of vascular wall fragment served as the criterion of biologic activity. AI values were expressed in percent, control AI values being considered as 100%.
# [7] = tested on: white mongrel male rats; assay: Sub-acute toxicity, 90 days daily intramuscular administration; format: in vivo; settings: daily i.m. 90 days, doses exceeding the therapeutic one by 100-1000 times
# Experimental: The study of sub-acute toxicity was performed on 60 white mongrel male rats with body weight of 160-240 g. […] Morphology and properties of the animals' peripheral blood were studied before the administration of the substance, as well as on the 30th, 60th and 90th day after the beginning of the administration. Upon completion of the experiment biochemical and coagulologic indices of the blood were also evaluated.
smiles,measurement,setting,value
"NCCCCC(N)C(=O)NC(CCC(=O)O)C(=O)NC(CC(=O)O)C(=O)O (stereo not drawn) [H-Lys-Glu-Asp-OH, lysyl-glutamyl-asparagine acid] (H-Lys-Glu-Asp-OH; configuration not given here)",biomicroscopy of gingival mucous membrane,"[1]; attached gingiva and transitional fold, 2 μg daily for 10 days",complete correction of the microcirculation
same,index of microcirculation (IM),"[1]; attached gingiva, 2 μg daily for 10 days, NaCl control 0.63±0.04",0.22±0.05
same,diameter of the capillaries,"[1]; attached gingiva, 2 μg daily for 10 days, NaCl control 9.8±0.35",7.8±0.20
same,blood flow rate (laser dopplerography),"[1]; attached gingiva, 2 μg daily for 10 days, NaCl control 17±0.7",20±1.1 conv. units
same,capillaries density per area unit,"[1]; average of gingiva parts, 2 μg daily for 10 days, norm 29.3±2.3, NaCl control 30±1.5",34±2.7
same,diameter of the capillaries,"[1]; free gingiva, 2 μg daily for 10 days, NaCl control 12.3±0.36 (μm printed only)",8.2±0.1
same,blood flow rate (laser dopplerography),"[1]; free gingiva, 2 μg daily for 10 days, norm 18±1.3, NaCl control 15±1.5",20±0.9 conv. units
same,index of microcirculation (IM),"[1]; free gingiva, 2 μg daily into gingiva for 10 days, normal 0.21±0.30, NaCl control 0.75±0.03",0.29±0.15
same,index of microcirculation (IM),"[1]; transitional fold, 2 μg daily for 10 days, NaCl control 0.39±0.02",0.20±0.18
same,diameter of the capillaries,"[1]; transitional fold, 2 μg daily for 10 days, NaCl control 9.1±0.09",6.57±0.1
same,blood flow rate (laser dopplerography),"[1]; transitional fold, 2 μg daily for 10 days, NaCl control 19±1.2",19±2.3 conv. units
same,Ethanol test,"[2]; 100 μg daily i.m. 10 days, healthy 0, control 43.8",14.3** % of the positive cases
same,Fibrinogen,"[2]; 100 μg daily i.m. 10 days, healthy 3.2 ± 0.4, control 2.9 ± 0.1",2.5 ± 0.1 g/L
same,Prothrombin time,"[2]; 100 μg daily i.m. 10 days, healthy 12.5 ± 0.1, control 12.4 ± 0.4",13.3 ± 0.1 s
same,Thrombin time,"[2]; 100 μg daily i.m. 10 days, healthy 18.2 ± 0.6, control 16.0 ± 0.2",17.1 ± 0.2 c
same,Activated partial thromboplastin time,"[2]; 100 μg daily i.m. 10 days, healthy 32.3 ± 2.1, control 48.0 ± 1.3",58.9 ± 0.7 s
same,Euglobulin fibrinolysis,"[2]; 100 μg daily i.m. 10 days, healthy 150.0 ± 6.8, control 163.5 ± 5.0",156.2 ± 3.9 min
same,Time of recalcification,"[2]; 100 μg daily i.m. 10 days, healthy 178.0 ± 14.0, control 147.3 ± 4.2",164.2 ± 2.4
same,Hess test (vascular walls durability),[2]; after administration of the pharmaceutical composition,reduction in the number of hemorrhages
same,"pathologic alterations (general status, blood indices, organ morphology, cardiovascular, respiratory, liver and kidney functions)",[3],no pathologic alterations
same,side effects in long-term administration (chronic toxicity),[4]; guinea pig,absence of any side effects
same,changes in guinea pig blood morphology and biochemical indices,[4],no statistically significant changes
same,Cuff test indices,"[5]; After administration, daily i.m. 1.0 μg, 100.0 μg or 5.0 mg by severity, 10 days, P < 0.05 vs before",II* (from 6 to 15)
same,Cuff test indices,[5]; Before administration (baseline of the peptide group),III-IV
same,number of skin hemorrhages,"[5]; before treatment, patients of both groups",30-47
same,number of skin hemorrhages,"[5]; main group after the treatment, control group unchanged",6-8
same,Area index (AI) growth as compared to the control AI,"[6]; 100 ng/ml, 3rd day of cultivation, statistically significant",24%
same,effect on vascular wall explants after longer cultivation,"[6]; 7 days of cultivating, same concentrations",same stimulating effect
same,side effects in long-term administration (subacute toxicity),[7],absence of any side effects

# Reference: patent publication US7851449B2, “Peptide, pharmaceutical composition, and a method of treating microcirculation disorders” (Obschestvo S Ogranichennoi Otvetstvennostyu “SIA Peptides”, priority 2006, dated 2010)
